# Laboratory results: US20120244122A1, “Peptides for the Treatment of HCV Infections” (priority 2009, published 2012)
# Like-named read-outs stand apart in the source and are kept apart here.
# Experiments:
# [1] = Metabolic stability in human liver microsomes; type: in vitro ADME; details: for half-life at 0.25 μM: human, in vitro half-life, 0.5 mg/mL HLM, 0.25 μM test compound, 2 mM NADPH, pH 7.4, 37° C., 0-30 minutes; for % Difference: [(deuterated species) − (nondeuterated species)](100)/(nondeuterated species), t1/2 in HLM vs boceprevir
# Method: Human liver microsomes (20 mg/mL) were obtained from Xenotech, LLC (Lenexa, Kans.). β-Nicotinamide adenine dinucleotide phosphate, reduced form (NADPH), magnesium chloride (MgCl2), and dimethyl sulfoxide (DMSO) were purchased from Sigma-Aldrich.
# 7.5 mM stock solutions of Compounds 103, 109, 130, 134, 154, 157 and 158, as well as boceprevir, were prepared in DMSO. The 7.5 mM stock solutions were diluted to 12.5 μM in acetonitrile (ACN). The 20 mg/mL human liver microsomes were diluted to 0.625 mg/mL in 0.1 M potassium phosphate buffer, pH 7.4, containing 3 mM MgCl2. The diluted microsomes (375 μL) were added to wells of a 96-well deep-well polypropylene plate in triplicate. 10 μL of the 12.5 μM test compound was added to the microsomes and the mixture was pre-warmed for 10 minutes. Reactions were initiated by addition of 125 μL of pre-warmed NADPH solution. The final reaction volume was 0.5 mL and contained 0.5 mg/mL human liver microsomes, 0.25 μM test compound, and 2 mM NADPH in 0.1 M potassium phosphate buffer, pH 7.4, and 3 mM MgCl2. The reaction mixtures were incubated at 37° C., and 50 μL aliquots were removed at 0, 5, 10, 20, and 30 minutes and added to shallow-well 96-well plates which contained 50 μL of ice-cold ACN with internal standard to stop the reactions. The plates were stored at 4° C. for 20 minutes after which 100 μl of water was added to the wells of the plate before centrifugation to pellet precipitated proteins. Supernatants were transferred to another 96-well plate and analyzed for amounts of parent remaining by LC-MS/MS using an Applied Bio-systems API 4000 mass spectrometer. 7-ethoxycoumarin (1 μM) was used as the positive control substrate.
# The in vitro half-lives (t1/2s) for test compounds are calculated from the slopes of the linear regression of % parent remaining (ln) vs incubation time relationship using the following formula:
# in vitro t1/2=0.693/k, where k=−[slope of linear regression of % parent remaining(ln) vs incubation time]
# Data analysis is performed using Microsoft Excel Software.
# The experiment was repeated four separate times.
# hepatitis C virus (HCV) = details: treatment-naïve patients, boceprevir combined with peginterferon alpha-2b and ribavirin, cited from earlier work
# [2] = patients with hepatitis C; adverse events infrequent (headache, fever, myalgia); cited from earlier work
half-life at 0.25 μM ([1]; human liver microsomes) [min],% Difference [1] [%],Compound,sustained viral response (SVR) rates (hepatitis C virus (HCV); after 12 weeks),sustained viral response (SVR) rates (hepatitis C virus (HCV); after 24 weeks),tolerability [2],half-life at 0.25 μM ([1]; microsomes) [min]
19,–,"CC(C)(C)NC(=O)NC(C(=O)N1CC2C(C1C(=O)NC(CC1CCC1)C(=O)C(N)=O)C2(C)C)C(C)(C)C (stereo not drawn) [Boceprevir, N-(4-amino-1-cyclobutyl-3,4-dioxobutan-2-yl)-3-(2-(3-tert-butylureido)-3,3-dimethylbutanoyl)-6,6-dimethyl-3-azabicyclo[3.1.0]hexane-2-carboxamide]",66-74%,55-56%,well-tolerated,–
25,32.0,"[2H]C([2H])([2H])C1(C([2H])([2H])[2H])[C@@H]2[C@@H](C(=O)NC(CC3CCC3)C(=O)C(N)=O)N(C(=O)[C@@H](NC(=O)NC(C([2H])([2H])[2H])(C([2H])([2H])[2H])C([2H])([2H])[2H])C(C([2H])([2H])[2H])(C([2H])([2H])[2H])C([2H])([2H])[2H])C[C@@H]21 (stereo partly drawn) [Compound 103, (1R,2S,5S)—N-(4-Amino-1-(cyclobutyl)-3,4-dioxobutan-2-yl)-3-((S)-2-(3-tert-butyl-d9-ureido)-3,3-di(methyl-d3)-4,4,4-d3-butanoyl)-6,6-di(methyl-d3)-3-azabicyclo[3.1.0]hexane-2-carboxamide]",–,–,–,–
23.2,21.8,"[2H]C([2H])([2H])C(NC(=O)N[C@H](C(=O)N1C[C@H]2[C@@H]([C@H]1C(=O)NC(CC1CCC1)C(=O)C(N)=O)C2(C)C)C(C([2H])([2H])[2H])(C([2H])([2H])[2H])C([2H])([2H])[2H])(C([2H])([2H])[2H])C([2H])([2H])[2H] (stereo partly drawn) [Compound 109, (1R,2S,5S)—N-(4-Amino-1-cyclobutyl-3,4-dioxobutan-2-yl)-6,6-dimethyl-3-((S)-4,4,4-(methyl-d3)-2-(3-(1,1,1,3,3,3-di(methyl-d3)-2-(methyl-d3)propan-2-yl)ureido)-3,3-di(methyl-d3)butanoyl)-3-azabicyclo[3.1.0]hexane-2-carboxamide]",–,–,–,–
31.4,65.3,"[2H]C([2H])([2H])C1(C([2H])([2H])[2H])[C@@H]2[C@@H](C(=O)NC(C(=O)C(N)=O)C([2H])([2H])C3([2H])C([2H])([2H])C([2H])([2H])C3([2H])[2H])N(C(=O)[C@@H](NC(=O)NC(C)(C)C)C(C)(C)C)C[C@@H]21 (stereo partly drawn) [Compound 130, (1R,2S,5S)—N-(4-Amino-1-(cyclobutyl-d7)-1,1-d2-3,4-dioxobutan-2-yl)-3-((S)-2-(3-tert-butylureido)-3,3-dimethylbutanoyl)-6,6-di(methyl-d3)-3-azabicyclo[3.1.0]hexane-2-carboxamide]",–,–,–,–
28.7,51.4,"[2H]C([2H])(C(NC(=O)[C@@H]1[C@@H]2[C@H](CN1C(=O)[C@@H](NC(=O)NC(C)(C)C)C(C)(C)C)C2(C)C)C(=O)C(N)=O)C1([2H])C([2H])([2H])C([2H])([2H])C1([2H])[2H] (stereo partly drawn) [Compound 154, (1R,2S,5S)—N-(4-Amino-1-(cyclobutyl-d7)-1,1-d2-3,4-dioxobutan-2-yl)-3-((S)-2-(3-tert-butylureido)-3,3-dimethylbutanoyl)-6,6-dimethyl-3-azabicyclo[3.1.0]hexane-2-carboxamide]",–,–,–,–
26.6,39.9,"[2H]C1([2H])C([2H])([2H])C([2H])(CC(NC(=O)[C@@H]2[C@@H]3[C@H](CN2C(=O)[C@@H](NC(=O)NC(C)(C)C)C(C)(C)C)C3(C)C)C(=O)C(N)=O)C1([2H])[2H] (stereo partly drawn) [Compound 157, (1R,2S,5S)—N-(4-Amino-1-(cyclobutyl-d7)-3,4-dioxobutan-2-yl)-3-((S)-2-(3-tert-butylureido)-3,3-dimethylbutanoyl)-6,6-dimethyl-3-azabicyclo[3.1.0]hexane-2-carboxamide]",–,–,–,–
37.2,96.3,"[2H]C([2H])([2H])C1(C([2H])([2H])[2H])[C@@H]2[C@@H](C(=O)NC(C(=O)C(N)=O)C([2H])([2H])C3([2H])C([2H])([2H])C([2H])([2H])C3([2H])[2H])N(C(=O)[C@@H](NC(=O)NC(C([2H])([2H])[2H])(C([2H])([2H])[2H])C([2H])([2H])[2H])C(C([2H])([2H])[2H])(C([2H])([2H])[2H])C([2H])([2H])[2H])C[C@@H]21 (stereo partly drawn) [Compound 158, (1R,2S,5S)—N-(4-Amino-1-(cyclobutyl-d7)-1,1-d2-3,4-dioxobutan-2-yl)-3-((S)-2-(3-(tert-butyl-d9)ureido)-3,3-di(methyl-d3)-4,4,4-d3-butanoyl)-6,6-di(methyl-d3)-3-azabicyclo[3.1.0]hexane-2-carboxamide]",–,–,–,–

Compound,half-life at 0.25 μM ([1]; human liver microsomes) [min],% Difference [1] [%],sustained viral response (SVR) rates (hepatitis C virus (HCV); after 12 weeks),sustained viral response (SVR) rates (hepatitis C virus (HCV); after 24 weeks),tolerability [2],half-life at 0.25 μM ([1]; microsomes) [min]
"[2H]C([2H])([2H])C1(C([2H])([2H])[2H])[C@@H]2[C@@H](C(=O)NC(CC3CCC3)C(=O)C(N)=O)N(C(=O)[C@@H](NC(=O)NC(C)(C)C)C(C)(C)C)C[C@@H]21 (stereo partly drawn) [Compound 134, (1R,2S,5S)—N-(4-Amino-1-cyclobutyl-3,4-dioxobutan-2-yl)-3-((S)-2-(3-tert-butylureido)-3,3-dimethylbutanoyl)-6,6-di(methyl-d3)-3-azabicyclo[3.1.0]hexane-2-carboxamide]",–,7.9,–,–,–,19.1
